{"source": "PubChem BioAssay AID1625", "about": "(Sanford-Burnham Center for Chemical Genomics, 2009)", "test_system": "MIN6 insulin promoter-GFP reporter, high-content imaging", "assay": "up-regulation of insulin promoter-GFP reporter – imaging, high-content screening, mouse beta cells (AID 1625)", "note": "pEC50: −log10 of the molar value. Calls of active or inactive are those of the source.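 Rule for the calls: active = z-score above 3 at 5 µM with at least 500 cells counted in the well; inconclusive = wells under 500 cells, flagged as cytotoxic or low count; inactive = the rest.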"}
{"smiles": "Oc1c(C=NCc2ccc(F)cc2)[nH]c2ccc(Br)c(Cl)c12", "values": [{"measurement": "EC50", "result": "> 16 µM (inactive)"}]}
{"smiles": "N#C/C(=C/c1ccc(N2CCCCC2)o1)C(=O)Nc1ccc2ccccc2c1", "values": [{"measurement": "pEC50", "result": 6.25}]}
{"smiles": "COC(=O)c1cc2c(-c3ccccc3)cc3ccccn3c-2c1C(=O)OC", "values": [{"measurement": "EC50", "result": "> 16 µM (inactive)"}]}
{"smiles": "CCNc1ccc2noc3c2c1C(=O)c1ccccc1-3", "values": [{"measurement": "EC50", "result": "> 16 µM (inactive)"}]}
{"smiles": "CC(=O)C1=C(C)NC(SCC(=O)c2ccc(Cl)c(Cl)c2)=C(C#N)C1c1ccco1", "note": "(centres undefined)", "values": [{"measurement": "EC50", "result": "> 16 µM (inactive)"}]}
{"smiles": "O=S(=O)(Nc1cc2nc3ccccc3nc2n1Cc1ccccc1)c1ccc(Cl)cc1", "values": [{"measurement": "pEC50", "result": 5.14}]}
{"smiles": "CC(C)NC(=O)/C(C#N)=C/c1ccc(N(C)C)o1", "values": [{"measurement": "pEC50", "result": 5.09}]}
{"smiles": "CCOC(=O)/C(C#N)=C/C=C1\\C=Cc2ccccc2N1CC", "values": [{"measurement": "EC50", "result": "> 16 µM (inactive)"}]}
{"smiles": "CCOC(=O)N1CCN(/C=C(\\C#N)c2nc3ccccc3s2)CC1", "values": [{"measurement": "EC50", "result": "> 16 µM (inactive)"}]}
{"smiles": "CCc1cccc2cc3c(N)c(C(=O)Nc4ccc(S(=O)(=O)N5CCCC5)cc4)sc3nc12", "values": [{"measurement": "EC50", "result": "10.2 µM (inactive)"}]}
{"smiles": "Oc1ccc(/C=N/Nc2ccnc3cc(Cl)ccc23)c(O)c1", "values": [{"measurement": "EC50", "result": "> 16 µM (inactive)"}]}
{"smiles": "CC(=O)c1ccc2cccc3c2c1N=CN3C", "values": [{"measurement": "EC50", "result": "> 16 µM (inactive)"}]}
{"smiles": "CCCN1CC=C2C(C#N)=C(N)C(C#N)(C#N)C(c3cc(OC)ccc3OC)C2C1", "note": "(centres undefined)", "values": [{"measurement": "pEC50", "result": 5.30}]}
{"smiles": "N#C/C(=C/c1ccc(N2CCCCCC2)o1)c1ccc(Cl)cc1", "values": [{"measurement": "EC50", "result": "10.1 µM (inactive)"}]}
{"smiles": "CCN(CC)c1ccc2cc(C(N)=O)/c(=N\\NC(=O)c3ccncc3)oc2c1", "values": [{"measurement": "pEC50", "result": 5.01}]}
{"smiles": "CCN(CC)c1ccc(/C=N/c2sc3c(c2C#N)C2CCN3CC2)c(O)c1", "values": [{"measurement": "pEC50", "result": 5.55}]}
{"smiles": "COc1cc2c3nnc(-c4ccccc4)c-3cn(Cc3ccccc3F)c2cc1OC", "values": [{"measurement": "pEC50", "result": 5.51}]}
{"smiles": "CN1C=CC2=C(C#N)C(N)C(C#N)(C#N)C(c3ccccc3)C2C1", "note": "(centres undefined)", "values": [{"measurement": "pEC50", "result": 5.13}]}
{"smiles": "CN1CC=C2C(C#N)=C(N)C(C#N)(C#N)C(c3ccncc3)C2C1", "note": "(centres undefined)", "values": [{"measurement": "EC50", "result": "> 16 µM (inactive)"}]}
{"smiles": "N=c1oc2c3c4c(cc2cc1C(=O)Nc1ccccc1)CCCN4CCC3", "values": [{"measurement": "pEC50", "result": 6.16}]}
{"smiles": "Cc1ccc(N2C(=O)C3C(C(=O)c4ccccc4)=NN(c4ccccc4)C3C2=O)cc1", "note": "(centres undefined)", "values": [{"measurement": "EC50", "result": "12.6 µM (inactive)"}]}
{"smiles": "CN1CCN(C2=CC3=CC(=C(C#N)C#N)CCC3CC2)CC1", "note": "(centres undefined)", "values": [{"measurement": "pEC50", "result": 5.47}]}
{"smiles": "CN1CCS/C1=C/C=C1/SC(=S)N(Cc2ccccc2)C1=O", "values": [{"measurement": "EC50", "result": "> 16 µM (inactive)"}]}
{"smiles": "COc1ccc(C(=O)/C=C/c2ccc(N(C)C)cc2)c(OC)c1", "values": [{"measurement": "pEC50", "result": 5.20}]}
{"smiles": "CC(=O)n1c(C=Nc2ccccc2)c(O)c2ccccc21", "values": [{"measurement": "EC50", "result": "10.1 µM (inactive)"}]}
{"smiles": "Cc1nonc1NC(=O)CSc1nc2c(C)cccc2cc1C#N", "values": [{"measurement": "EC50", "result": "> 16 µM (inactive)"}]}
{"smiles": "CCCCn1c(O)c(C(=O)/C=C/c2c[nH]c3ccccc23)c(=O)[nH]c1=O", "values": [{"measurement": "EC50", "result": "> 16 µM (inactive)"}]}
{"smiles": "COc1cc2c3nnc(-c4ccc(F)cc4)c-3cn(Cc3ccc(F)cc3)c2cc1OC", "values": [{"measurement": "pEC50", "result": 5.27}]}
{"smiles": "CCCN1C(=O)/C(=C/c2c(N3CCNC(=O)C3CC(=O)OCC)nc3c(C)cccn3c2=O)SC1=S", "note": "(centres undefined)", "values": [{"measurement": "EC50", "result": "> 16 µM (inactive)"}]}
{"smiles": "CCN(CC)c1ccc2cc(-c3nnc(-c4ccccc4)o3)c(=O)oc2c1", "values": [{"measurement": "pEC50", "result": 5.54}]}
{"smiles": "CCN1CCc2c(sc(NC(=S)NC(=O)c3ccc(Cl)cc3)c2C(N)=O)C1", "values": [{"measurement": "EC50", "result": "14.1 µM (inactive)"}]}
{"smiles": "CCCOc1cc(N(CC)CC)ccc1/C=C(/C#N)c1nc2ccc(C)cc2[nH]1", "values": [{"measurement": "pEC50", "result": 5.00}]}
{"smiles": "O=c1c(Cl)c2oc3ccccc3nc-2c2ccccc12", "values": [{"measurement": "EC50", "result": "> 16 µM (inactive)"}]}
{"smiles": "Cc1noc(/C=C/c2ccc(-c3ccccc3Cl)o2)c1[N+](=O)[O-]", "values": [{"measurement": "pEC50", "result": 5.25}]}
{"smiles": "N#CC1=C(N)C(C#N)(C#N)[C@H](c2ccoc2)[C@H]2CN(Cc3ccccc3)CC=C12", "values": [{"measurement": "pEC50", "result": 5.01}]}
{"smiles": "Cc1ccc2nc(/C(C#N)=C\\c3ccc(N4CCOCC4)o3)[nH]c2c1", "values": [{"measurement": "pEC50", "result": 5.46}]}
{"smiles": "COc1ccc(CN2C(=O)/C(=C/c3ccc(-c4ccc(Cl)c(C(=O)O)c4)o3)SC2=S)cc1", "values": [{"measurement": "EC50", "result": "15.4 µM (inactive)"}]}
{"smiles": "Cc1nnc(NC(=O)c2sc3nc(-c4cccs4)cc(C(F)(F)F)c3c2N)s1", "values": [{"measurement": "pEC50", "result": 5.04}]}
{"smiles": "CCCCN1C(=O)/C(=C/C=C2\\SCCN2C)SC1=S", "values": [{"measurement": "pEC50", "result": 5.04}]}
{"smiles": "CCN1CCc2c(sc(NC(=O)Nc3ccc(Cl)c(Cl)c3)c2C(N)=O)C1", "values": [{"measurement": "pEC50", "result": 5.85}]}
{"smiles": "O=[N+]([O-])c1ccc(N(c2ccccc2)c2ccccc2)cc1", "values": [{"measurement": "EC50", "result": "> 16 µM (inactive)"}]}
{"smiles": "CN1CC=C2C(C#N)=C(N)C(C#N)(C#N)[C@H](c3cccs3)[C@H]2C1", "values": [{"measurement": "EC50", "result": "11.1 µM (inactive)"}]}
{"smiles": "CN1C(=S)N(c2cccnc2)C(=O)/C1=C\\c1ccc(N(C)C)cc1", "values": [{"measurement": "EC50", "result": "> 16 µM (inactive)"}]}
{"smiles": "CCCN1C(=O)S/C(=C\\c2ccc(N3CCOCC3)o2)C1=O", "values": [{"measurement": "EC50", "result": "13.9 µM (inactive)"}]}
{"smiles": "O=c1oc2cc(O)ccc2cc1-c1nc2c(s1)CCc1ccccc1-2", "values": [{"measurement": "EC50", "result": "10.2 µM (inactive)"}]}
{"smiles": "CCN(CC)c1ccc(/C=C/C(=O)c2ccc(Br)cc2)cc1", "values": [{"measurement": "pEC50", "result": 5.15}]}
{"smiles": "CCN1C(=O)/C(=C/C=C2\\N(CC)c3cc(S(=O)(=O)N(C)C)ccc3N2c2ccccc2)SC1=S", "values": [{"measurement": "pEC50", "result": 5.18}]}
{"smiles": "CCCN1C(=O)/C(=C/C=C2\\N(CC)c3ccccc3C2(C)C)SC1=S", "values": [{"measurement": "EC50", "result": "> 16 µM (inactive)"}]}
{"smiles": "N#C/C(=C/c1ccc(-c2ccc(S(N)(=O)=O)cc2)o1)c1nc2ccccc2s1", "values": [{"measurement": "EC50", "result": "10 µM (inactive)"}]}
{"smiles": "COc1cc(/C=C(\\C#N)c2nc3ccccc3o2)ccc1O", "values": [{"measurement": "EC50", "result": "> 16 µM (inactive)"}]}
{"smiles": "Nc1ccc2c(c1)Cc1cc([N+](=O)[O-])ccc1-2", "values": [{"measurement": "pEC50", "result": 5.02}]}
{"smiles": "Nc1c(C(=O)N/N=C/c2cccnc2)oc2nc(-c3ccccc3)cc(-c3ccco3)c12", "values": [{"measurement": "EC50", "result": "> 16 µM (inactive)"}]}
{"smiles": "COc1ccc(CN=Cc2[nH]c3ccc(Br)c(Cl)c3c2O)cc1", "values": [{"measurement": "EC50", "result": "> 16 µM (inactive)"}]}
{"smiles": "Cc1cccc(N=Cc2[nH]c3ccc(Br)c(Cl)c3c2O)c1", "values": [{"measurement": "pEC50", "result": 5.31}]}
{"smiles": "COc1ccc(C(=O)c2sc3nc(-c4ccccc4)ccc3c2N)cc1OC", "values": [{"measurement": "EC50", "result": "> 16 µM (inactive)"}]}
{"smiles": "Cc1cc(N2CCCC2)ccc1/C=C1\\NC(=S)N(C)C1=O", "values": [{"measurement": "pEC50", "result": 5.01}]}
{"smiles": "CCN(CC)c1ccc2cc(-c3nc4ccccc4[nH]3)c(=O)oc2c1", "values": [{"measurement": "pEC50", "result": 6.55}]}
{"smiles": "COc1cccc2sc(NNC(=O)C3=COCCO3)nc12", "values": [{"measurement": "EC50", "result": "> 16 µM (inactive)"}]}
{"smiles": "CC(C)N1CC=C2C(C#N)=C(N)C(C#N)(C#N)C(c3ccccc3)C2C1", "note": "(centres undefined)", "values": [{"measurement": "pEC50", "result": 5.22}]}
{"smiles": "N#CC(C#N)=C1C=C2C=C(N3CCOCC3)CCC2CC1", "note": "(centres undefined)", "values": [{"measurement": "pEC50", "result": 5.59}]}
{"smiles": "CN1/C(=C\\C=C2C(=O)NC(=S)NC2=O)C(C)(C)c2ccccc21", "values": [{"measurement": "pEC50", "result": 5.41}]}
{"smiles": "CCCN1C(=O)S/C(=C/c2ccc(N3CCOCC3)o2)C1=O", "values": [{"measurement": "pEC50", "result": 5.09}]}
{"smiles": "N#C/C(=C\\N1CCN(Cc2ccc3c(c2)OCO3)CC1)c1nc2ccccc2s1", "values": [{"measurement": "EC50", "result": "> 16 µM (inactive)"}]}
{"smiles": "Cc1c(N=C2N=C(NC(=O)c3cccs3)c3ccccc32)c(=O)n(-c2ccccc2)n1C", "values": [{"measurement": "EC50", "result": "13.9 µM (inactive)"}]}
{"smiles": "COCCN1C(=O)/C(=C/c2ccc(N3CCCC3)cc2)SC1=S", "values": [{"measurement": "EC50", "result": "12 µM (inactive)"}]}
{"smiles": "COc1cc(N2CCCC2)c(OC)cc1/C=C(/C#N)c1cccc(F)c1", "values": [{"measurement": "EC50", "result": "> 16 µM (inactive)"}]}
{"smiles": "O=C(O)c1ccccc1N/N=C/c1c(Sc2nnnn2-c2ccccc2)nc2ccccn2c1=O", "values": [{"measurement": "pEC50", "result": 5.22}]}
{"smiles": "Cn1cc(/C=C2\\SC(=S)N(NC(=O)c3ccccc3)C2=O)c2ccccc21", "values": [{"measurement": "EC50", "result": "> 16 µM (inactive)"}]}
{"smiles": "Nc1c(C(=O)C2CC2)sc2nc(-c3cccs3)cc(C(F)(F)F)c12", "values": [{"measurement": "pEC50", "result": 5.38}]}
{"smiles": "COc1cc(OC)c(-c2c3cc(O)c(=O)cc-3oc3cc(O)c(O)cc23)cc1OC", "values": [{"measurement": "pEC50", "result": 5.07}]}
{"smiles": "Cn1c(=O)c(N)c2c3c(c(Br)ccc31)C(=O)c1ccccc1-2", "values": [{"measurement": "pEC50", "result": 5.05}]}
{"smiles": "C=CCN1C(=O)c2cccc3c(N4CCCCC4)ccc(c23)C1=O", "values": [{"measurement": "pEC50", "result": 5.27}]}
{"smiles": "CN1CC=C2C(C#N)=C(N)C(C#N)(C#N)C(c3cccc(Cl)c3Cl)C2C1", "note": "(centres undefined)", "values": [{"measurement": "EC50", "result": "11.9 µM (inactive)"}]}
{"smiles": "CCCCCCN1C=CC(=C/C=C(\\C#N)C(=O)OCC)C=C1", "values": [{"measurement": "EC50", "result": "11 µM (inactive)"}]}
